Source: patent US20050054620A1, “Paricalcitol as a chemotherapeutic agent” (priority 2003, published 2005)

What was measured:
24-hydroxylase mRNA = assay: RT-PCR of 24-hydroxylase mRNA in HL-60 cells; format: cell-based, human; conditions: paricalcitol 0.01 μM, arsenic trioxide 0.8 μM, after 24 hrs
Protocol: HL-60 and NB-4 myeloid leukemia cell lines were treated with paricalcitol (0.01 μM for HL-60, 0.1 μM for NB-4) and/or arsenic trioxide (0.8 μM for HL-60, 0.6 μM for NB-4). Control cells were treated with vehicle alone. […] Cell lysates were also made and used for Western blot which was probed with antibodies to C/EBPβ. (B) Cell lysate of HL-60 cells were made after 3 days and used for Western blot which was probed sequentially with antibodies to Bcl-2, BclXL and Bax (C) Cell lysates of HL-60 cells were made after 1, 2 or 3 days and used for Western blot which was probed sequentially with antibodies to phosphorylated ERK. (D) After pretreatment either with or without […] of PD98059 for 1 hour, HL-60 cells were treated with paricalcitol (0.01 μM) and/or arsenic trioxide (0.8 μM) for 2 days. Control cells were treated with vehicle alone. CD14 expression was measured by flow cytometry.
In FIG. 6B, HT-29 colon cancer cells were treated with paricalcitol (10^−7M) for 0, 6, 12 or 24 hrs and RNA was harvested. Expression of 24 hydroxylase mRNA was analysed by RT-PCR. The amounts of mRNA were normalized by comparison to 18S RNA. In FIG. 6C, mononuclear cells extracted from spleens of either wild type or VDR knock-out mice were treated with paricalcitol (10^−8M) for either 12 or 24 hrs, and RNA was harvested. Expression of 24 hydroxylase mRNA was analysed by RT-PCR. […]

HT-29 cells [1] = assay: Western blot of cell lysates; format: cell-based, human; conditions: 10^−7M, 72 hrs
Protocol: Western blot analysis was used to determine the levels of proteins involved in cell cycle and differentiation. […] After centrifugation at 15,000×g for 15 min at 4° C., the suspension was collected. Protein concentrations were quantitated using the Bio-Rad assay (Bio-Rad Labolatories, Hercules, Calif.). […] The blots were developed using the Supersignal West Pico Chemiluminescent Substrate Kit (Pierce, Rockford, Ill.). In FIG. 4B, HT-29 cells were exposed to either paricalcitol (10^−7M) or 1,25(OH)2D3(10^−7M). Cell lysates were prepared after 72 hrs of culture and analyzed by Western blot. The Western blot was probed sequentially with antibodies for p27KIP1, p21WAF1, cyclin D1, c-myc and E-Cadherin (antibodies from Santa Cruz Biotechnology) as described in Example II. Control cells were treated with vehicle alone. The quantity of protein was normalized by comparison to the amount of GAPDH. In FIG. 4C, HT-29 and SW837 cells were cultured with either paricalcitol (10^−7M) or 1,25(OH)2D3 (10^−7M) for 72 hrs. Cell lysates were prepared and analyzed by Western blot which was probed sequentially with antibodies to COX-1 and COX-2 (Santa Cruz Biotechnology). Control cells were treated with vehicle alone. The amount of protein was normalized by comparison to the quantity of GAPDH.

SW837 = assay: Soft agar colony assay (clonal proliferation); format: cell-based; conditions: Homo sapiens, 336 h, colonies counted after 14 days, read-out: concentration that caused 50% inhibition (ED50) of clonal growth
Protocol: (§1) A soft agar colony assay was used to test the effect of paricalcitol and 1,25(OH)2D3 on various cancer cell lines. For the soft agar colony assay, trypsinized and washed single-cell suspensions of cells were enumerated and plated into 24 well flat bottom plates using a two-layer soft agar system with a total of 1×10^3 cells/well in a volume of […], as described previously (Kubota et al., supra, 1998).
(§2) Cell lines used in this study were obtained from American Type Culture Collection (Rockville, Md.) and were maintained according to their recommendations. Myeloid leukemia cell lines (HL-60, NB-4, THP-1, U937), lymphoma cell lines (Raji, Ramos, Daudi, Jurkat, Jeko-1, JUDHL) and myeloma cell lines (RPMI-8226, ARH-77, NCI-H929) were grown in RPMI 1640 with 10% FCS. Breast cancer cell lines (MCF-7, MDA-MB-231), brain cancer cell lines (U343, U118, U138, U373, U87), and colon cancer cell lines (HT-29, SW837, SW480, SW620, HCT116) were maintained in DMEM with 10% FCS. Endometrial carcinoma cell line, AN-3 was maintained in Alpha Minimum Essential Medium (a-MEM) with 10% FCS.

THP-1 = assay: Soft agar colony assay (clonal proliferation); format: cell-based; conditions: Homo sapiens, 336 h, colonies counted after 14 days, read-out: concentration that caused 50% inhibition (ED50) of clonal growth
Protocol: as §1, §2

HT-29 cells [2] = assay: Soft agar colony assay (clonal proliferation); format: cell-based; conditions: Homo sapiens, 336 h, colonies counted after 14 days, read-out: concentration that caused 50% inhibition (ED50) of clonal growth
Protocol: as §1, §2

NCI-H929 cells = assay: Soft agar colony assay (clonal proliferation); format: cell-based; conditions: Homo sapiens, 336 h, colonies counted after 14 days, read-out: concentration that caused 50% inhibition (ED50) of clonal growth
Protocol: as §1, §2

HL-60 cells [3] = assay: Soft agar colony assay (clonal proliferation); format: cell-based; conditions: Homo sapiens, 336 h, colonies counted after 14 days, read-out: concentration that caused 50% inhibition (ED50) of clonal growth
Protocol: as §1, §2

NB-4 cells = assay: Soft agar colony assay (clonal proliferation); format: cell-based; conditions: Homo sapiens, 336 h, colonies counted after 14 days, read-out: concentration that caused 50% inhibition (ED50) of clonal growth
Protocol: as §1, §2

HL-60 cells [4] = assay: Morphological analysis, Wright-Giemza stain; format: cell-based, human; conditions: 10^−7M, 120 hrs
Protocol: (A) Cell cycle analysis of HL-60 cells by flow cytometry. HL-60 cells were cultured with paricalcitol (10^−7 M) for 72 hrs, harvested and stained with propidium iodine (PI). Control cells were treated with vehicle alone. Results represent the mean±SD of three independent experiments. (B) HL-60 or NB-4 cells were treated with either paricalcitol (10^−7 M) or 1,25(OH)2D3 (10^−7 M). Cell lysates were prepared after 72 hrs and analyzed by Western blot with a series of antibodies (p21WAF1, p27KIP1, PTEN). Control cells were treated with vehicle alone. The amounts of protein were normalized by comparison to levels of GAPDH. […] Dashed line indicates negative control antibody; black area, CD14 antibody. CD14 positive cells are in the area shown by M2. (D) HL-60 cells were cultured with paricalcitol (10^−7 M) for 120 hrs, fixed and stained with Wright-Giemza stain for morphological analysis.

`C[C@H](/C=C/[C@H](C)C(C)(C)O)[C@H]1CC[C@H]2/C(=C/C=C3C[C@@H](O)C[C@H](O)C3)CCC[C@]12C` [paricalcitol, 19-nor-1,25, (OH)2D3] was tested, and the “mRNA levels of 24-hydroxylase” value (24-hydroxylase mRNA) was “increased”, the “decrease of COX-2 expression” value (HT-29 cells [1]) was 40% and the “decrease of c-myc expression” value (HT-29 cells [1]) was roughly 40%. For the same compound, the “decrease of cyclin D1 expression” value (HT-29 cells [1]) was “about 50%”, the “effect on COX-1 expression” value (HT-29 cells [1]) was “without affecting” and the “increase of E-cadherin” value (HT-29 cells [1]) was “about 6 fold”. For the same compound, the “increase of p21WAF1 protein level” value (HT-29 cells [1]) was “about 5 fold”, the “increase of p27KIP1 protein level” value (HT-29 cells [1]) was roughly 6 fold and the EC50 (SW837) was 46 nM. It also gave an EC50 (THP-1) of 5.8 nM, an EC50 (HT-29 cells [2]) of 17 nM and an EC50 (NCI-H929 cells) of 0.02 nM. For the same compound, the EC50 (HL-60 cells [3]) was 2.4 nM, the EC50 (NB-4 cells) was 3.4 nM and the morphological examination (HL-60 cells [4]) was “monocytic differentiation”.
